According to ChEMBL document CHEMBL5465560, “Selectivity Literature for EUbOPEN Chemogenomic Library” (2024):
Each block holds one molecule with its values, some of them ahead of it.

How the values were obtained:
[1] = target: CDK18/Cyclin Y (Homo sapiens) (UniProt Q07002+Q8ND76); assay: Selectivity interaction (Kinase panel (Z-LYTE Assay)) EUB0001632a CDK18; type: protein-complex assay; conditions: at 10 µM
[2] = target: Fibroblast growth factor receptor 4 (Homo sapiens, UniProt P22455); assay: Selectivity interaction (Kinase panel (Z-LYTE Assay)) EUB0001632a FGFR4; conditions: at 10 µM
Sequence of Fibroblast growth factor receptor 4 (P22455 22-802 limits assumed): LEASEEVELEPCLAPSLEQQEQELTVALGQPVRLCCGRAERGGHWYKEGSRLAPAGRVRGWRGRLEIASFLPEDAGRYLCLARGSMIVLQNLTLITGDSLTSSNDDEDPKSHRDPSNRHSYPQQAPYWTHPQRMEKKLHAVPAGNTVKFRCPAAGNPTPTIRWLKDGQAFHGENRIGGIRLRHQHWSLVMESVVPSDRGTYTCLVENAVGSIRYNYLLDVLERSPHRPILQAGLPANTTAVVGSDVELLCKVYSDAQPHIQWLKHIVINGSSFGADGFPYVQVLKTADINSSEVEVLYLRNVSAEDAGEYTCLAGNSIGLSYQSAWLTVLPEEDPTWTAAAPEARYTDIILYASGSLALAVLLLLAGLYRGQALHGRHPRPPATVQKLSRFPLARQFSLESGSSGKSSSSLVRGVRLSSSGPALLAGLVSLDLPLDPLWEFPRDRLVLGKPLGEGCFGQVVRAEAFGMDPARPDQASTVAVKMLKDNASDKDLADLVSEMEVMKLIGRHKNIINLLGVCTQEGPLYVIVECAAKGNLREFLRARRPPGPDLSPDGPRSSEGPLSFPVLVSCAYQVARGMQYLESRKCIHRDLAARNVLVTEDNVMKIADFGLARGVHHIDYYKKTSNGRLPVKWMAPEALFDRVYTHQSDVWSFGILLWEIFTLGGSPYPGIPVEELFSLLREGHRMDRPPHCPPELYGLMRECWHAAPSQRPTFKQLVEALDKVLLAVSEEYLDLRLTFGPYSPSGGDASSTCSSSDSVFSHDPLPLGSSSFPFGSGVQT

[3] = target: Cyclin-dependent kinase 5/CDK5 activator 1 (Homo sapiens) (UniProt Q00535+Q15078); assay: Selectivity interaction (SelectScreen profiling (Invitrogen)) EUB0000607a CDK5; type: protein-complex assay; conditions: at 2 µM
Sequence of Cyclin-dependent kinase 5/CDK5 activator 1 (Homo sapiens) (Q00535 whole entry): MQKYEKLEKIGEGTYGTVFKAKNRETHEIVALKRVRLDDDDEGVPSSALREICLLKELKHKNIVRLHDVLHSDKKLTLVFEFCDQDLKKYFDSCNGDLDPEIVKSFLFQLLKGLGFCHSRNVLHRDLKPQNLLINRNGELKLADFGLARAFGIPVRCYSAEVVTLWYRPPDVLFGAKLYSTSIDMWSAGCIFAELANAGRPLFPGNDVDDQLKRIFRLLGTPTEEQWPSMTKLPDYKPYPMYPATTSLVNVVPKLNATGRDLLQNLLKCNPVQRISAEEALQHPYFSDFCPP
Sequence of Cyclin-dependent kinase 5/CDK5 activator 1 (Homo sapiens) (Q15078 99-307 partner limits assumed): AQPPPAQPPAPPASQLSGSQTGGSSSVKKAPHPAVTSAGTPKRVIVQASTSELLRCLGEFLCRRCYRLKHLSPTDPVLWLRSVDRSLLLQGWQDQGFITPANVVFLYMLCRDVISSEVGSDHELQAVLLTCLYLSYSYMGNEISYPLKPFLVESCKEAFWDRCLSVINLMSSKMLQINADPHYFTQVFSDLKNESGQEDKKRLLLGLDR

[4] = target: Serine/threonine-protein kinase pim-3 (Homo sapiens) (UniProt Q86V86); conditions: at 10 µM
[5] = target: Serine/threonine-protein kinase N1 (Homo sapiens, UniProt Q16512); assay: Selectivity interaction (ActivX KiNativ screen (kinase selectivity in THP-1 cell lysates)) EUB0000639a PKN1; type: subcellular; conditions: lysate, at 1 µM
Sequence of Serine/threonine-protein kinase N1 (Q16512 2-942 limits assumed): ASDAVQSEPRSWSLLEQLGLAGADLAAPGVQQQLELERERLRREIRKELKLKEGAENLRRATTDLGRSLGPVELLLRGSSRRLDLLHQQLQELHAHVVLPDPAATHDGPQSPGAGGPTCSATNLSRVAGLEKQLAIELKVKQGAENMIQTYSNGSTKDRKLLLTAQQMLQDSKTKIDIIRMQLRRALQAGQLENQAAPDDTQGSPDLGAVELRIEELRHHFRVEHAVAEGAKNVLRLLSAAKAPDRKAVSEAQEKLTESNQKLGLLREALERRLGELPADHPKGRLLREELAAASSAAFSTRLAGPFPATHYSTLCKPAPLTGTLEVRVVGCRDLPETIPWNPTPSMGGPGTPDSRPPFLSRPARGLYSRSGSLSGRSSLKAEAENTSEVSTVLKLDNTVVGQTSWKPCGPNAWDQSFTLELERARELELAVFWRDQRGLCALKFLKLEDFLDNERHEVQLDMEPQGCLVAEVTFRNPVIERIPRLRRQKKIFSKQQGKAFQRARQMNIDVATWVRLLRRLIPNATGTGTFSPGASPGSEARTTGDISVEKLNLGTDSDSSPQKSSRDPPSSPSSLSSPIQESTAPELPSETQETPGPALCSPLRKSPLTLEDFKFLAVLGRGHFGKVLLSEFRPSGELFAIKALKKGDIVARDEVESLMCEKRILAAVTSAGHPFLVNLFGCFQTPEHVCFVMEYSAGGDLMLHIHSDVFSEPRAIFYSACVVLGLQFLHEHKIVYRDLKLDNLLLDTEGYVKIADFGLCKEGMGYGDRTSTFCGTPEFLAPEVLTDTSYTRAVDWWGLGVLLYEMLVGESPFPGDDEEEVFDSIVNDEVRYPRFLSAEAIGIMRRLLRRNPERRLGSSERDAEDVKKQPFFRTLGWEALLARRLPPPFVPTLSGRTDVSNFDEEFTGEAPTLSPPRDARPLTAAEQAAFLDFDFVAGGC

[6] = target: T1, Phosphatidylinositol 5-phosphate 4-kinase type-2 gamma (Homo sapiens) (UniProt Q8TBX8); assay: Selectivity interaction (ActivX KiNativ screen (kinase selectivity in THP-1 cell lysates)) EUB0000639a PIP4K2C; type: subcellular; conditions: lysate
T1 sequence (whole entry): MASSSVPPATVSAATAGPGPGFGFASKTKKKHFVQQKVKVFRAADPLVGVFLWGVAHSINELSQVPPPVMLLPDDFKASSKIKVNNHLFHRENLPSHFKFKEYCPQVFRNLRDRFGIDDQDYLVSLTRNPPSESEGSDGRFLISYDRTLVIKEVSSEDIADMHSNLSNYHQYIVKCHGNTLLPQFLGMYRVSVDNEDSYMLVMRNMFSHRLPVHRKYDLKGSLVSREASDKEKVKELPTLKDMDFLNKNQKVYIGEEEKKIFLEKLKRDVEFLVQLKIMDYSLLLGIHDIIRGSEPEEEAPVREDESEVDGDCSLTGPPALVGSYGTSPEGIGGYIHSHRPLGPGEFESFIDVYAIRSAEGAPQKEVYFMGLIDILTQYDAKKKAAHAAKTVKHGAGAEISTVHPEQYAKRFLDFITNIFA

[7] = target: Platelet-derived growth factor receptor beta (Homo sapiens, UniProt P09619); assay: Selectivity interaction (KinomeScan (DiscoverX)) EUB0001049a PDGFRB; conditions: at 1 µM
[8] = target: Cyclin-dependent kinase 9 (Homo sapiens, UniProt P50750); assay: Selectivity interaction (KinomeScan (DiscoverX)) EUB0000655a CDK9; conditions: at 10 µM
Sequence of Cyclin-dependent kinase 9 (P50750 whole entry): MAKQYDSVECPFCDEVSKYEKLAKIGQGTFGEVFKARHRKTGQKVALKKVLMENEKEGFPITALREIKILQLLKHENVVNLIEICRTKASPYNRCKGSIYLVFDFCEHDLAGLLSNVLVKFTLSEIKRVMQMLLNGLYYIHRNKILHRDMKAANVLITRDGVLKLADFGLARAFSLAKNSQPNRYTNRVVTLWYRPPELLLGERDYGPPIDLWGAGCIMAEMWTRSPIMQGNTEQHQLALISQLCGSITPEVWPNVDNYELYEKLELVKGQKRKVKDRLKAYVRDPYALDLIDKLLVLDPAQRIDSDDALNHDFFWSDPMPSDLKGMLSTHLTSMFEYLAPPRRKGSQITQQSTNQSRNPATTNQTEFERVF

[9] = target: Mitogen-activated protein kinase kinase kinase 1 (Homo sapiens, UniProt Q13233); assay: Selectivity interaction (KinomeScan (DiscoverX)) EUB0000229b MAP3K1; conditions: at 10 µM
Sequence of Mitogen-activated protein kinase kinase kinase 1 (Q13233 whole entry): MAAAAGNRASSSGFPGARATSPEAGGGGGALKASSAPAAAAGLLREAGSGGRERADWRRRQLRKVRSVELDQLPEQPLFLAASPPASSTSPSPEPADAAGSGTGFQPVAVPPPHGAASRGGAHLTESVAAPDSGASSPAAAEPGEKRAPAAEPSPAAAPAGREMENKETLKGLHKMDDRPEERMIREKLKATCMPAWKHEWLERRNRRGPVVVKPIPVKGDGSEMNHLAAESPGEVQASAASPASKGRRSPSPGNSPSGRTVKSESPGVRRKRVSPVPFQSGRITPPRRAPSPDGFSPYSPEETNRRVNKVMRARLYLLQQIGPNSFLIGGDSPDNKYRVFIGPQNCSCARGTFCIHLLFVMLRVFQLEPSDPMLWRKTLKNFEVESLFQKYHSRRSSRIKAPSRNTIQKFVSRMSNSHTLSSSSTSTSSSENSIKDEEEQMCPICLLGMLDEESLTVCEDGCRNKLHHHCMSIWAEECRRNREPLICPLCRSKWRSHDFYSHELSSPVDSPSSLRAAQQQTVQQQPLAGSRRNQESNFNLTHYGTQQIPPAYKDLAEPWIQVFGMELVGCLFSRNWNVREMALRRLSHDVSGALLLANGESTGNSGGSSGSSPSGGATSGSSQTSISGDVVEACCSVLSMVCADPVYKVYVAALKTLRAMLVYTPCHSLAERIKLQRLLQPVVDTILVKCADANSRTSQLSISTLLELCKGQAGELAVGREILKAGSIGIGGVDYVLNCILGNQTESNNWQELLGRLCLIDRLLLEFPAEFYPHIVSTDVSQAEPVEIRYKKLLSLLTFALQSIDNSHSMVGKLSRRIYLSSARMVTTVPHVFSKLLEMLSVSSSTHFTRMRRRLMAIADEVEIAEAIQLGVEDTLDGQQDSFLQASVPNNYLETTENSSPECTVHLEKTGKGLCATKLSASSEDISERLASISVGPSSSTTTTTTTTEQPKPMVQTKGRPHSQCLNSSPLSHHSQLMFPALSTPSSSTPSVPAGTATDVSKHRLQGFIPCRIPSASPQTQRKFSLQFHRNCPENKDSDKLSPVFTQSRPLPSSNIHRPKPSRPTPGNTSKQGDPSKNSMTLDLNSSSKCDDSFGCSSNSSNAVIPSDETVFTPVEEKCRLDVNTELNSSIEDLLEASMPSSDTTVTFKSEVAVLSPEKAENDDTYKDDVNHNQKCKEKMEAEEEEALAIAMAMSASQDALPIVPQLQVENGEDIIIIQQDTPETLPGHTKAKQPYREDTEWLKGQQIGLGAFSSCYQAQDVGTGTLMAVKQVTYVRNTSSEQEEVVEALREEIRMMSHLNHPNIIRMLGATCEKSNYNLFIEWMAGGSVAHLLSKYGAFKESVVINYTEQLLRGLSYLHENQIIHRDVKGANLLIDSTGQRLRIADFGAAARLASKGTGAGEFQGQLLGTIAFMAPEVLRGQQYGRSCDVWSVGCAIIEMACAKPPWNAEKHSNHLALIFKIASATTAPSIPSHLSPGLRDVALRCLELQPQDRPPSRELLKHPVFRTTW

[10] = target: T2, MAP/microtubule affinity-regulating kinase 4 (Homo sapiens) (UniProt Q96L34); assay: Selectivity interaction (Kinase panel (Carna Biosciences)) EUB0001542aTs MARK4; conditions: at 1 µM
T2 sequence (whole entry): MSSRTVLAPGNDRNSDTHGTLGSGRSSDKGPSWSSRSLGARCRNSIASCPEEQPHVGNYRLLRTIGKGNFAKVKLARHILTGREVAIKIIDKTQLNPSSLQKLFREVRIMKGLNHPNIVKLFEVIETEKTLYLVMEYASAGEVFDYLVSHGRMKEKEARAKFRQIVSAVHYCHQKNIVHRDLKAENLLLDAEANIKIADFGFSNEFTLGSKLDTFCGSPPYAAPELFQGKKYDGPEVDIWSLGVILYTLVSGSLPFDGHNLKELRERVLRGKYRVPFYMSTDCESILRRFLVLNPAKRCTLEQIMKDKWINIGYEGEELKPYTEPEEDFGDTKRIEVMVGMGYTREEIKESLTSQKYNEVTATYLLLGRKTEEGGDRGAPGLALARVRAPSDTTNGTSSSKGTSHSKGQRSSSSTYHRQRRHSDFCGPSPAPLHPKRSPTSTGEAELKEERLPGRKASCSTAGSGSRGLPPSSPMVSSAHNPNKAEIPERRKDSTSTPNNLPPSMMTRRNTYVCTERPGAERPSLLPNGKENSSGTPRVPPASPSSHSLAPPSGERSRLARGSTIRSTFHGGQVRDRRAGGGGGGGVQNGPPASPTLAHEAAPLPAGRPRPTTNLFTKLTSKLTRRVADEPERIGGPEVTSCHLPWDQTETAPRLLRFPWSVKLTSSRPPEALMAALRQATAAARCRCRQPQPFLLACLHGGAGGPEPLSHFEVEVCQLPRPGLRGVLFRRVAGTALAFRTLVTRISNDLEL

[11] = target: Serine/threonine-protein kinase 35 (Homo sapiens) (UniProt Q8TDR2); conditions: at 10 µM
Sequence of Serine/threonine-protein kinase 35 (Homo sapiens) (Q8TDR2 whole entry): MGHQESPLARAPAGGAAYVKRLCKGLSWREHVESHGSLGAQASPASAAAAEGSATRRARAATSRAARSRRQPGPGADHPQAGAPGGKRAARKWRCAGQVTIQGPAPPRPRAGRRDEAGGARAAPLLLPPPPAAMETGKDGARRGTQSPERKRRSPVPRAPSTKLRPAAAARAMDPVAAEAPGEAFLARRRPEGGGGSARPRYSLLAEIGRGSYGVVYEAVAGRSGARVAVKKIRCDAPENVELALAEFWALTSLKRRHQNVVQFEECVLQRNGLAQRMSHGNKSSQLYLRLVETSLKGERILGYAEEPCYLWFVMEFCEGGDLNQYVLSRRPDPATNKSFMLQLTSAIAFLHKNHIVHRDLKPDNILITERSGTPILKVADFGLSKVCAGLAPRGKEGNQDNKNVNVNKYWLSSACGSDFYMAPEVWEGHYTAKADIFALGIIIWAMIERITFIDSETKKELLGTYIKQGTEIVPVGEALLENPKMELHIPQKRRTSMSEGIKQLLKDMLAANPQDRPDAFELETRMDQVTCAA

[12] = target: T3, Tyrosine-protein kinase Tec (Homo sapiens) (UniProt P42680); conditions: at 10 µM
T3 sequence (whole entry): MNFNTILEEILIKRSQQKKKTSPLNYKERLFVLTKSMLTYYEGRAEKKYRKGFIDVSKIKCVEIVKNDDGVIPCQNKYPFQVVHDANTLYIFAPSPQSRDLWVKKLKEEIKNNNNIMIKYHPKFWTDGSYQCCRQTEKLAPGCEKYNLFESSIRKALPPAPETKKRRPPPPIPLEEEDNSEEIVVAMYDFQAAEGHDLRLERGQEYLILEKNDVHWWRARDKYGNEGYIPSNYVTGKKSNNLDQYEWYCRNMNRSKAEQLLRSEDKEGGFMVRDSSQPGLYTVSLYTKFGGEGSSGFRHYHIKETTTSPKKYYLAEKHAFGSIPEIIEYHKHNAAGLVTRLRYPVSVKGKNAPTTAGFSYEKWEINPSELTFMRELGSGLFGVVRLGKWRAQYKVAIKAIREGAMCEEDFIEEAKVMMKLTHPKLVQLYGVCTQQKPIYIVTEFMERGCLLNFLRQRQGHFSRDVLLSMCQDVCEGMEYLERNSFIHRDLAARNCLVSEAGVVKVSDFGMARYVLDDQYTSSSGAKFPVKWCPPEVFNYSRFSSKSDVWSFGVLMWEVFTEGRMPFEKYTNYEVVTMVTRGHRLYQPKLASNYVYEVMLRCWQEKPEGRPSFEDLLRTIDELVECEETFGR

% of control [1]: 1.58%
% of control [2]: 3.57%
Structure (SMILES): Cn1cc(-n2cnc3c(NCc4nc5cc(Cl)c(Cl)cc5[nH]4)nc(N4CCOCC4)nc32)cn1

Structure (SMILES): CNC(=O)Nc1ccc(-c2nc(N3CC4CCC(C3)O4)c3cnn(C4CCC5(CC4)OCCO5)c3n2)cc1
% of inhibition [3]: -4%

% of control [4]: 100%
Structure (SMILES): CCN(CC)CCCCNc1ncc2cc(-c3cc(OC)cc(OC)c3)c(NC(=O)NC(C)(C)C)nc2n1

% of inhibition [5]: -0.1%
% of inhibition ([6]; at 0.01 µM): 6.3%
% of inhibition ([6]; at 0.04 µM): 19.8%
% of inhibition ([6]; at 0.2 µM): 55.9%
% of inhibition ([6]; at 1 µM): 83.6%
% of inhibition ([6]; at 5 µM): 93.9%
Structure (SMILES): CC[C@@H]1[C@H](F)C(=O)N[C@@H]1COc1nccc2cc(C(N)=O)c(OC)cc12 [ZIMLOVISERTIB]

Structure (SMILES): COc1cc(Nc2nc(C)cc(-c3cnn4nc(OC)ccc34)n2)cc(C(F)(F)F)c1
% of control [7]: 100%

Structure (SMILES): CN(C)CCOc1ccc(-c2nc(-c3ccncc3)c(-c3ccc4c(c3)CC/C4=N\O)[nH]2)cc1
% of control [8]: 100%

Structure (SMILES): COc1cc(N(C)c2ccnc3ccc(C(F)(F)F)cc23)cc(OC)c1OC
% binding [9]: 74%

% of inhibition [10]: 59%
Structure (SMILES): Cn1cc(Nc2nccc(N3CC4CCC(C3)N4C(=O)[C@@H]3CC3(F)F)n2)cn1

Structure (SMILES): Cc1cc([C@@H](C)Nc2ccccc2C(=O)O)c2nc(N3CCOCC3)cc(=O)n2c1 [AZD-6482]
% of control [11]: 95%
% of control [12]: 91%
